Reference: the NIST ThermoML archive (doi:10.1021/je800234h)

Assay: mn = molality of the nth substance listed, in mol/kg
Details: Liquid, Vibrating tube method

[Ca+2].[Cl-].[Cl-] [calcium chloride] + CCO
Details	mass density [kg/m3]
348.15 K, 20480 kPa, m1 = 0.1743	776.42
348.15 K, 20640 kPa, m1 = 1.55	872.48
348.15 K, 20670 kPa, m1 = 0.9896	834.64
348.15 K, 20840 kPa, m1 = 0.4379	796.01
348.15 K, 25040 kPa, m1 = 0.4379	799.76
348.15 K, 25060 kPa, m1 = 1.266	855.9
348.15 K, 25160 kPa, m1 = 0.09327	774.52
348.15 K, 25190 kPa, m1 = 1.55	876.08
348.15 K, 25620 kPa, m1 = 0.1743	781.15
348.15 K, 25740 kPa, m1 = 0.6899	818.02
348.15 K, 25940 kPa, m1 = 0.9896	839.09
348.15 K, 30420 kPa, m1 = 0.1743	785.25
348.15 K, 30480 kPa, m1 = 0.09327	779.14
348.15 K, 30610 kPa, m1 = 0.6899	821.98
348.15 K, 30610 kPa, m1 = 1.266	860.42
348.15 K, 30730 kPa, m1 = 0.4379	804.51
348.15 K, 30750 kPa, m1 = 1.55	880.1
348.15 K, 30860 kPa, m1 = 0.9896	842.93
348.15 K, 35150 kPa, m1 = 0.4379	807.92
348.15 K, 35290 kPa, m1 = 1.55	883.06
348.15 K, 35370 kPa, m1 = 0.9896	846.17
348.15 K, 35410 kPa, m1 = 0.09327	783.08
348.15 K, 35480 kPa, m1 = 1.266	864.22
348.15 K, 35640 kPa, m1 = 0.6899	825.77
348.15 K, 35860 kPa, m1 = 0.1743	789.53
348.15 K, 39260 kPa, m1 = 0.09327	785.92
348.15 K, 39380 kPa, m1 = 0.4379	810.96
348.15 K, 39490 kPa, m1 = 0.6899	828.45
348.15 K, 39880 kPa, m1 = 1.55	885.77
348.15 K, 39960 kPa, m1 = 1.266	867.59
348.15 K, 39970 kPa, m1 = 0.1743	792.5
348.15 K, 39970 kPa, m1 = 0.9896	849.2
373.15 K, 370 kPa, m1 = 0.09327	722.5
373.15 K, 390 kPa, m1 = 1.55	828.22
373.15 K, 420 kPa, m1 = 1.266	808.17
373.15 K, 680 kPa, m1 = 0.1743	728.72
373.15 K, 870 kPa, m1 = 0.6899	766.95
373.15 K, 920 kPa, m1 = 0.9896	788.74
373.15 K, 940 kPa, m1 = 0.4379	749.01
373.15 K, 4980 kPa, m1 = 1.266	813.49
373.15 K, 5040 kPa, m1 = 0.9896	794.18
373.15 K, 5060 kPa, m1 = 0.1743	735.26
373.15 K, 5140 kPa, m1 = 1.55	834.25
373.15 K, 5150 kPa, m1 = 0.6899	772.7
373.15 K, 5170 kPa, m1 = 0.4379	754.76
373.15 K, 5180 kPa, m1 = 0.09327	729.16
373.15 K, 9780 kPa, m1 = 1.266	818.85
373.15 K, 10150 kPa, m1 = 1.55	840.15
373.15 K, 10480 kPa, m1 = 0.09327	736.08
373.15 K, 10480 kPa, m1 = 0.4379	761.55
373.15 K, 10740 kPa, m1 = 0.1743	743.09
373.15 K, 10740 kPa, m1 = 0.6899	779.75
373.15 K, 10740 kPa, m1 = 0.9896	801.21
373.15 K, 15190 kPa, m1 = 0.4379	767.19
373.15 K, 15210 kPa, m1 = 0.6899	785.01
373.15 K, 15250 kPa, m1 = 0.1743	748.79
373.15 K, 15260 kPa, m1 = 1.266	824.65
373.15 K, 15290 kPa, m1 = 1.55	845.7
373.15 K, 15360 kPa, m1 = 0.9896	806.48
373.15 K, 15720 kPa, m1 = 0.09327	742.49
373.15 K, 20030 kPa, m1 = 1.266	829.44
373.15 K, 20140 kPa, m1 = 1.55	850.48
373.15 K, 20160 kPa, m1 = 0.4379	772.75
373.15 K, 20280 kPa, m1 = 0.09327	747.72
373.15 K, 20640 kPa, m1 = 0.1743	754.98
373.15 K, 20750 kPa, m1 = 0.9896	812.16
373.15 K, 20860 kPa, m1 = 0.6899	791.16
373.15 K, 25130 kPa, m1 = 0.4379	777.9
373.15 K, 25180 kPa, m1 = 0.1743	759.68
373.15 K, 25410 kPa, m1 = 1.266	834.54
373.15 K, 25670 kPa, m1 = 0.09327	753.48
373.15 K, 25750 kPa, m1 = 1.55	855.45
373.15 K, 25840 kPa, m1 = 0.6899	796.14
373.15 K, 25940 kPa, m1 = 0.9896	817.13
373.15 K, 29980 kPa, m1 = 1.266	838.62
373.15 K, 30140 kPa, m1 = 1.55	858.93
373.15 K, 30150 kPa, m1 = 0.6899	800.1
373.15 K, 30160 kPa, m1 = 0.9896	820.83
373.15 K, 30240 kPa, m1 = 0.4379	782.77
373.15 K, 30290 kPa, m1 = 0.09327	758.06
373.15 K, 30410 kPa, m1 = 0.1743	764.51
373.15 K, 35070 kPa, m1 = 1.266	842.89
373.15 K, 35370 kPa, m1 = 0.4379	787.22
373.15 K, 35420 kPa, m1 = 0.09327	762.76
373.15 K, 35480 kPa, m1 = 1.55	862.67
373.15 K, 35840 kPa, m1 = 0.6899	804.85
373.15 K, 35870 kPa, m1 = 0.1743	768.88
373.15 K, 35870 kPa, m1 = 0.9896	825.32
373.15 K, 39260 kPa, m1 = 0.4379	790.31
373.15 K, 39740 kPa, m1 = 0.1743	771.57
373.15 K, 39910 kPa, m1 = 0.09327	766.53
373.15 K, 39940 kPa, m1 = 0.6899	807.94
373.15 K, 39960 kPa, m1 = 0.9896	828.19
373.15 K, 39970 kPa, m1 = 1.266	846.74
373.15 K, 39970 kPa, m1 = 1.55	865.39
398.15 K, 620 kPa, m1 = 1.266	780.71
398.15 K, 680 kPa, m1 = 0.09327	692.59
398.15 K, 740 kPa, m1 = 1.55	801.26
398.15 K, 950 kPa, m1 = 0.4379	719.54
398.15 K, 970 kPa, m1 = 0.6899	737.62
398.15 K, 1030 kPa, m1 = 0.1743	700.75
398.15 K, 1060 kPa, m1 = 0.9896	760.33
398.15 K, 5070 kPa, m1 = 0.1743	707.51
398.15 K, 5070 kPa, m1 = 0.9896	766.76
398.15 K, 5100 kPa, m1 = 0.09327	700.41
398.15 K, 5160 kPa, m1 = 0.6899	744.53
398.15 K, 5180 kPa, m1 = 1.266	786.93
398.15 K, 5380 kPa, m1 = 0.4379	726.88
398.15 K, 5470 kPa, m1 = 1.55	808.33
398.15 K, 10020 kPa, m1 = 0.6899	752.01
398.15 K, 10060 kPa, m1 = 1.266	793.27
398.15 K, 10080 kPa, m1 = 0.09327	708.63
398.15 K, 10290 kPa, m1 = 0.4379	734.49
398.15 K, 10460 kPa, m1 = 1.55	815.02
398.15 K, 10540 kPa, m1 = 0.1743	716.08
398.15 K, 10540 kPa, m1 = 0.9896	774.89
398.15 K, 15240 kPa, m1 = 0.6899	759.43
398.15 K, 15290 kPa, m1 = 0.1743	722.99
398.15 K, 15290 kPa, m1 = 0.9896	781.35
398.15 K, 15410 kPa, m1 = 0.09327	716.75
398.15 K, 15610 kPa, m1 = 0.4379	742.12
398.15 K, 15620 kPa, m1 = 1.266	800.09
398.15 K, 15620 kPa, m1 = 1.55	821.29
398.15 K, 20030 kPa, m1 = 0.09327	723.21
398.15 K, 20080 kPa, m1 = 1.266	805.26
398.15 K, 20140 kPa, m1 = 0.1743	729.54
398.15 K, 20140 kPa, m1 = 1.55	826.33
398.15 K, 20410 kPa, m1 = 0.9896	787.68
398.15 K, 20480 kPa, m1 = 0.4379	748.53
398.15 K, 20620 kPa, m1 = 0.6899	766.4
398.15 K, 24980 kPa, m1 = 0.1743	735.56
398.15 K, 25060 kPa, m1 = 0.09327	729.63
398.15 K, 25080 kPa, m1 = 0.9896	792.89
398.15 K, 25340 kPa, m1 = 0.4379	754.4
398.15 K, 25340 kPa, m1 = 1.55	831.69
398.15 K, 25640 kPa, m1 = 1.266	811.31
398.15 K, 25890 kPa, m1 = 0.6899	772.57
398.15 K, 30030 kPa, m1 = 1.266	815.79
398.15 K, 30060 kPa, m1 = 0.4379	759.57
398.15 K, 30140 kPa, m1 = 0.6899	777.06
398.15 K, 30170 kPa, m1 = 0.09327	735.52
398.15 K, 30470 kPa, m1 = 1.55	836.6
398.15 K, 30740 kPa, m1 = 0.9896	798.47
398.15 K, 30780 kPa, m1 = 0.1743	742.1
398.15 K, 35180 kPa, m1 = 0.09327	740.65
398.15 K, 35180 kPa, m1 = 0.4379	764.61
398.15 K, 35460 kPa, m1 = 0.1743	746.84
398.15 K, 35740 kPa, m1 = 1.266	821.22
398.15 K, 35830 kPa, m1 = 1.55	841.39
398.15 K, 35940 kPa, m1 = 0.6899	782.51
398.15 K, 35970 kPa, m1 = 0.9896	802.93
398.15 K, 39290 kPa, m1 = 0.6899	785.29
398.15 K, 39380 kPa, m1 = 0.4379	768.3
398.15 K, 39760 kPa, m1 = 1.55	844.7
398.15 K, 39790 kPa, m1 = 0.1743	750.79
398.15 K, 39860 kPa, m1 = 0.9896	805.8
398.15 K, 39920 kPa, m1 = 0.09327	744.93
398.15 K, 39920 kPa, m1 = 1.266	824.91
